How the values were obtained:
Format in all cases: functional
Mus musculus [1] = assay: Increase of life span was determined against Ip implanted L1210 / 0 lymphoid leukemia in mice at a dose of 100 mg/kg per day after treatment 1; details: L1210/0, ip, route intraperitoneal
Mus musculus [2] = assay: Increase of life span was determined against Ip implanted L1210 / 0 lymphoid leukemia in mice at a dose of 200 mg/kg per day after treatment 1; details: L1210/0, ip, route intraperitoneal
Mus musculus [3] = assay: Range of survival days for antitumor activity against Ip implanted L1210 / 0 lymphoid leukemia in mice at a dose of 100 mg/kg per day after treatment 1; range is 9-10; details: route intraperitoneal
Mus musculus [4] = assay: Range of survival days for antitumor activity against Ip implanted L1210 / 0 lymphoid leukemia in mice at a dose of 200 mg/kg per day after treatment 1; range is 4-12; details: route intraperitoneal
Mus musculus [5] = assay: Survival time treated / survival time (T/C) for antitumor activity against Ip implanted L1210 / 0 lymphoid leukemia in mice at a dose of 200 mg/kg per day after treatment 1;7.5/8; details: route intraperitoneal
Mus musculus [6] = assay: Survival time treated / survival time (T/C) for antitumor activity against Ip implanted L1210 / 0 lymphoid leukemia in mice at a dose of 100 mg/kg per day after treatment 1;9.5/8; details: route intraperitoneal
Mus musculus [7] = assay: Increase of life span was determined against Ip implanted L1210 / ara-C lymphoid leukemia in mice at a dose of 300 mg/kg per day; details: route intraperitoneal
Mus musculus [8] = assay: Increase of life span was determined against Ip implanted L1210 / 0 lymphoid leukemia in mice at a dose of 200 mg/kg per day after treatment 1;8/7.5; details: L1210/0, ip, route intraperitoneal
Mus musculus [9] = assay: Range of survival days for antitumor activity against Ip implanted L1210 / ara-C lymphoid leukemia in mice at a dose of 300 mg/kg per day; range is 8-9; details: route intraperitoneal
Mus musculus [10] = assay: Range of survival days for antitumor activity against Ip implanted L1210 / 0 lymphoid leukemia in mice at a dose of 200 mg/kg per day after treatment 1; range is 4-8; details: route intraperitoneal
Mus musculus [11] = assay: Survival time treated / survival time (T/C) for antitumor activity against Ip implanted L1210 / 0 lymphoid leukemia in mice at a dose of 200 mg/kg per day after treatment 1; details: route intraperitoneal
Mus musculus [12] = assay: Survival time treated/survival time tested (T/C) for antitumor activity against Ip implanted L1210 / ara-C lymphoid leukemia in mice at a dose of 300 mg/kg per day;8/9; details: route intraperitoneal
Mus musculus [13] = assay: Increase of life span was determined against Ip implanted L1210 / 0 lymphoid leukemia in mice at a dose of 100 mg/kg per day after treatment 1-5; details: L1210/0, ip, route intraperitoneal
Mus musculus [14] = assay: Range of survival days for antitumor activity against Ip implanted L1210 / 0 lymphoid leukemia in mice at a dose of 80 mg/kg per day after treatment 1-5; range is 14-19; details: route intraperitoneal
Mus musculus [15] = assay: Increase of life span was determined against Ip implanted L1210 / 0 lymphoid leukemia in mice at a dose of 400 mg/kg per day after treatment 1; details: L1210/0, ip, route intraperitoneal
Mus musculus [16] = assay: Increase of life span was determined against Ip implanted L1210 / 0 lymphoid leukemia in mice at a dose of 80 mg/kg per day after treatment 1-5; details: L1210/0, ip, route intraperitoneal
Mus musculus [17] = assay: Range of survival days for antitumor activity against Ip implanted L1210 / 0 lymphoid leukemia in mice at a dose of 100 mg/kg per day after treatment 1- 5; range is 15-32; details: route intraperitoneal
Mus musculus [18] = assay: Range of survival days for antitumor activity against Ip implanted L1210 / 0 lymphoid leukemia in mice at a dose of 400 mg/kg per day after treatment 1; range is 11-15; details: route intraperitoneal
Mus musculus [19] = assay: Survival time treated / survival time (T/C) for antitumor activity against Ip implanted L1210 / 0 lymphoid leukemia in mice at a dose of 100 mg/kg per day after treatment 1-5;21.5/8; details: route intraperitoneal
Mus musculus [20] = assay: Survival time treated / survival time (T/C) for antitumor activity against Ip implanted L1210 / 0 lymphoid leukemia in mice at a dose of 400 mg/kg per day after treatment 1;14/8; details: route intraperitoneal
Mus musculus [21] = assay: Survival time treated / survival time (T/C) for antitumor activity against Ip implanted L1210 / 0 lymphoid leukemia in mice at a dose of 80 mg/kg per day after treatment 1-5;16/8; details: route intraperitoneal
Mus musculus [22] = assay: Increase of life span was determined against Ip implanted L1210 / ara-C lymphoid leukemia in mice at a dose of 167 mg/kg per day; details: route intraperitoneal
Mus musculus [23] = assay: Increase of life span was determined against Ip implanted L1210 / ara-C lymphoid leukemia in mice at a dose of 60 mg/kg per day; details: route intraperitoneal
Mus musculus [24] = assay: Increase of life span was determined against Ip implanted L1210 / 0 lymphoid leukemia in mice at a dose of 300 mg/kg per day after treatment 1; details: L1210/0, ip, route intraperitoneal
Mus musculus [25] = assay: Range of survival days for antitumor activity against Ip implanted L1210 / 0 lymphoid leukemia in mice at a dose of 60 mg/kg per day after treatment 1-5;range is 16-37; details: route intraperitoneal
Mus musculus [26] = assay: Increase of life span was determined against Ip implanted L1210 / 0 lymphoid leukemia in mice at a dose of 300 mg/kg per day after treatment 5; details: L1210/0, ip, route intraperitoneal
Mus musculus [27] = assay: Range of survival days for antitumor activity against Ip implanted L1210 / ara-C lymphoid leukemia in mice at a dose of 167 mg/kg per day; details: route intraperitoneal
Mus musculus [28] = assay: Range of survival days for antitumor activity against Ip implanted L1210 / ara-C lymphoid leukemia in mice at a dose of 300 mg/kg per day; details: route intraperitoneal
Mus musculus [29] = assay: Range of survival days for antitumor activity against Ip implanted L1210 / ara-C lymphoid leukemia in mice at a dose of 60 mg/kg per day; details: route intraperitoneal
Mus musculus [30] = assay: Increase of life span was determined against Ip implanted L1210 / 0 lymphoid leukemia in mice at a dose of 400 mg/kg per day after treatment 5; details: L1210/0, ip, route intraperitoneal
Mus musculus [31] = assay: Increase of life span was determined against Ip implanted L1210 / 0 lymphoid leukemia in mice at a dose of 60 mg/kg per day after treatment 1-5; details: L1210/0, ip, route intraperitoneal
Mus musculus [32] = assay: Range of survival days for antitumor activity against Ip implanted L1210 / 0 lymphoid leukemia in mice at a dose of 100 mg/kg per day after treatment 1-5;range is 14->45; details: route intraperitoneal
Mus musculus [33] = assay: Range of survival days for antitumor activity against Ip implanted L1210 / 0 lymphoid leukemia in mice at a dose of 300 mg/kg per day after treatment 1;range is 18-30; details: route intraperitoneal
Mus musculus [34] = assay: Range of survival days for antitumor activity against Ip implanted L1210 / 0 lymphoid leukemia in mice at a dose of 400 mg/kg per day after treatment 1;range is 16->45; details: route intraperitoneal
Mus musculus [35] = assay: Survival time treated / survival time (T/C) for antitumor activity against Ip implanted L1210 / 0 lymphoid leukemia in mice at a dose of 300 mg/kg per day after treatment 1;25/7; details: route intraperitoneal
Mus musculus [36] = assay: Survival time treated / survival time (T/C) for antitumor activity against Ip implanted L1210 / 0 lymphoid leukemia in mice at a dose of 100 mg/kg per day after treatment 1-5;36.5/8; details: route intraperitoneal
Mus musculus [37] = assay: Survival time treated / survival time (T/C) for antitumor activity against Ip implanted L1210 / 0 lymphoid leukemia in mice at a dose of 300 mg/kg per day after treatment 5;17/8; details: route intraperitoneal
Mus musculus [38] = assay: Survival time treated / survival time (T/C) for antitumor activity against Ip implanted L1210 / 0 lymphoid leukemia in mice at a dose of 400 mg/kg per day after treatment 1;27.5/7; details: route intraperitoneal
Mus musculus [39] = assay: Survival time treated / survival time (T/C) for antitumor activity against Ip implanted L1210 / 0 lymphoid leukemia in mice at a dose of 400 mg/kg per day after treatment 5;16.5/8; details: route intraperitoneal
Mus musculus [40] = assay: Survival time treated / survival time (T/C) for antitumor activity against Ip implanted L1210 / 0 lymphoid leukemia in mice at a dose of 60 mg/kg per day after treatment 1-5;26.5/8; details: route intraperitoneal
Mus musculus [41] = assay: Survival time treated/survival time tested (T/C) for antitumor activity against Ip implanted L1210 / ara-C lymphoid leukemia in mice at a dose of 300 mg/kg per day; details: route intraperitoneal
Mus musculus [42] = assay: Survival time treated/survival time tested (T/C) for antitumor activity against Ip implanted L1210 / ara-C lymphoid leukemia in mice at a dose of 60 mg/kg per day; details: route intraperitoneal
Mus musculus [43] = assay: Survival time treated/survival time tested (T/C) for antitumor activity against Ip implanted L1210 / ara-C lymphoid leukemia in mice at a dose of 167 mg/kg per day; details: route intraperitoneal
Mus musculus [44] = assay: Range of survival days for antitumor activity against Ip implanted L1210 / 0 lymphoid leukemia in mice at a dose of 300 mg/kg per day after treatment 5;range is 15-21; details: route intraperitoneal
Mus musculus [45] = assay: Range of survival days for antitumor activity against Ip implanted L1210 / 0 lymphoid leukemia in mice at a dose of 400 mg/kg per day after treatment 5;[…]; details: route intraperitoneal

Question: What does the source list for `CCCCCCCCCCCCCCCCCCSCC(COP(=O)(O)OP(=O)(O)OC[C@H]1OC(n2ccc(N)nc2=O)[C@@H](O)[C@@H]1O)OCC` (mixture of isomers)?
Answer: ILS at 100 mg/kg/day (Mus musculus [1]): 19%; ILS at 200 mg/kg/day (Mus musculus [2]): -6%; Range of survival days (Mus musculus [3]): 9; Range of survival days (Mus musculus [4]): 4; T/C (Mus musculus [5]): 7.5; T/C (Mus musculus [6]): 9.5

Question: With `CCCCCCCCCCCCCCCCCCSCC(COP(=O)(O)OP(=O)(O)OC[C@H]1O[C@@H](n2ccc(N)nc2=O)[C@H](O)[C@@H]1O)OC` (stereo partly drawn) as the molecule, how does the ILS at 300 mg/kg/day (Mus musculus [7]) read?
Answer: -11%

Question: And the ILS at 200 mg/kg/day (Mus musculus [8])?
Answer: 7%

Question: And the “Range of survival days” value (Mus musculus [9])?
Answer: 8

Question: And the “Range of survival days” value (Mus musculus [10])?
Answer: 4

Question: What about the T/C (Mus musculus [11]) of the same molecule?
Answer: 8

Question: And the T/C (Mus musculus [12])?
Answer: 8

Question: For `CCCCCCCCCCCCCCCCCCSCC(COP(=O)(O)OP(=O)(O)OC[C@H]1OC(n2ccc(N)nc2=O)[C@@H](O)[C@@H]1O)OCCCCCCCCCCCCCCCC` (mixture of isomers), which ILS at 100 mg/kg/day (Mus musculus [13]) is on record?
Answer: 169%

Question: And the “Range of survival days” value (Mus musculus [14])?
Answer: 14

Question: And the ILS at 400 mg/kg/day (Mus musculus [15])?
Answer: 75%

Question: What about the ILS at 80 mg/kg/day (Mus musculus [16]) of the same molecule?
Answer: 100%

Question: What about the “Range of survival days” value (Mus musculus [17]) of the same molecule?
Answer: 15

Question: What about the “Range of survival days” value (Mus musculus [18]) of the same molecule?
Answer: 11

Question: What about the T/C (Mus musculus [19]) of the same molecule?
Answer: 21.5

Question: And the T/C (Mus musculus [20])?
Answer: 14

Question: And the T/C (Mus musculus [21])?
Answer: 16

Question: What does the source list for `CCCCCCCCCCCCCCCCSCC(COP(=O)(O)OP(=O)(O)OC[C@H]1OC(n2ccc(N)nc2=O)[C@@H](O)[C@@H]1O)OC(=O)CCCCCCCCCCCCCCC` (mixture of isomers)?
Answer: ILS at 167 mg/kg/day (Mus musculus [22]): 310%; ILS at 300 mg/kg/day (Mus musculus [7]): > 400%; ILS at 60 mg/kg/day (Mus musculus [23]): > 356%; ILS at 100 mg/kg/day (Mus musculus [13]): 356%; ILS at 300 mg/kg/day (Mus musculus [24]): 257%; Range of survival days (Mus musculus [25]): 16; ILS at 300 mg/kg/day (Mus musculus [26]): 113%; Range (Mus musculus [27]): >7; Range (Mus musculus [28]): >45; Range (Mus musculus [29]): >29; ILS at 400 mg/kg/day (Mus musculus [15]): 293%; ILS at 400 mg/kg/day (Mus musculus [30]): 106%; ILS at 60 mg/kg/day (Mus musculus [31]): 231%; Range of survival days (Mus musculus [32]): >14; Range of survival days (Mus musculus [33]): 18; Range of survival days (Mus musculus [34]): >16; T/C (Mus musculus [35]): 25; T/C (Mus musculus [36]): 36.5; T/C (Mus musculus [37]): 17; T/C (Mus musculus [38]): 27.5; T/C (Mus musculus [39]): 16.5; T/C (Mus musculus [40]): 26.5; T/C (Mus musculus [41]): >45; T/C (Mus musculus [42]): >41; T/C (Mus musculus [43]): 41; Range of survival days (Mus musculus [44]): 15; Range of survival days (Mus musculus [45]): 15

Source: ChEMBL document CHEMBL1124763, “Nucleoside conjugates. 11. Synthesis and antitumor activity of 1-beta-D-arabinofuranosylcytosine and cytidine conjugates of thioether lipids” (1990)
